# Data published in patent publication US20250243189A1, “HERBICIDAL IMIDAZOLE-CONTAINING COMPOUNDS” (SYNGENTA CROP PROTECTION AG, priority 2022, published 2025).
# How the values were obtained:
# Format in all cases: in vivo
# Details in all cases: 250 g/ha, evaluated after 13 days, five-point scale
# AMAPA [1] = assay: Pre-emergence herbicidal glasshouse test
# Method: [Worded in the source for another organism; this organism is reported under the same test.] (§1) Seeds of a variety of test species are sown in standard soil in pots Amaranthus retoflexus (AMARE), Echinochloa crus-galli (ECHCG), Setaria faberi (SETFA)). After cultivation for one day (pre-emergence) or after 8 days cultivation (post-emergence) under controlled conditions in a glasshouse (at 24/16° C., day/night; 14 hours light; 65% humidity), the plants are sprayed with an aqueous spray solution derived from the formulation of the technical active ingredient in acetone/water (50:50) solution containing 0.5% Tween 20 (polyoxyethelyene sorbitan monolaurate, CAS RN 9005-64-5). Compounds are applied at 250 g/ha unless otherwise stated. The test plants are then grown in a glasshouse under controlled conditions in a glasshouse (at 24/16° C., day/night; 14 hours light; 65% humidity) and watered twice daily. After 13 days for pre and post-emergence, the test is evaluated for the percentage damage caused to the plant. The biological activities are shown in the following table on a five-point scale (5=81-100%; 4=61-80%; 3=41-60%; 2=21-40%; 1=0-20%).
# Setaria faberi (SETFA) [2] = assay: Pre-emergence herbicidal glasshouse test
# Method: as §1
# [3] = system: Amaranthus retoflexus (AMARE); assay: Pre-emergence herbicidal glasshouse test
# Method: as §1
# [4] = system: Echinochloa crus-galli (ECHCG); assay: Pre-emergence herbicidal glasshouse test
# Method: as §1
# IPOHE [5] = assay: Pre-emergence herbicidal glasshouse test
# Method: as §1
# AMAPA [6] = assay: Post-emergence herbicidal glasshouse test
# Method: [Worded in the source for another organism; this organism is reported under the same test.] as §1
# Setaria faberi (SETFA) [7] = assay: Post-emergence herbicidal glasshouse test
# Method: as §1
# [8] = system: Amaranthus retoflexus (AMARE); assay: Post-emergence herbicidal glasshouse test
# Method: as §1
# [9] = system: Echinochloa crus-galli (ECHCG); assay: Post-emergence herbicidal glasshouse test
# Method: as §1
# IPOHE [10] = assay: Post-emergence herbicidal glasshouse test
# Method: as §1
Structure (SMILES),"percentage damage caused to the plant, AMAPA (AMAPA [1])","percentage damage caused to the plant, SETFA (Setaria faberi (SETFA) [2])","percentage damage caused to the plant, AMARE [3]","percentage damage caused to the plant, ECHCG [4]","percentage damage caused to the plant, IPOHE (IPOHE [5])","percentage damage caused to the plant, AMAPA (AMAPA [6])","percentage damage caused to the plant, SETFA (Setaria faberi (SETFA) [7])","percentage damage caused to the plant, AMARE [8]","percentage damage caused to the plant, ECHCG [9]","percentage damage caused to the plant, IPOHE (IPOHE [10])"
"FC(F)(F)c1cn(Cc2ncc(Cl)cn2)c(-c2ccc(Cl)s2)n1 [Compound 1.001, 5-chloro-2-[[2-(5-chloro-2-thienyl)-4-(trifluoromethyl)imidazol-1-yl]methyl]pyrimidine]",5 (5=81-100%),5 (5=81-100%),5 (5=81-100%),5 (5=81-100%),5 (5=81-100%),5 (5=81-100%),5 (5=81-100%),5 (5=81-100%),5 (5=81-100%),4 (4=61-80%)
Cn1nccc1-c1nc(C(F)(F)F)cn1Cc1ncc(Cl)cn1 [Compound 1.005],5 (5=81-100%),5 (5=81-100%),5 (5=81-100%),5 (5=81-100%),5 (5=81-100%),5 (5=81-100%),5 (5=81-100%),5 (5=81-100%),5 (5=81-100%),4 (4=61-80%)
Cn1ccnc1-c1nc(C(F)(F)F)cn1Cc1ncc(Cl)cn1 [Compound 1.006],1 (1=0-20%),1 (1=0-20%),1 (1=0-20%),1 (1=0-20%),1 (1=0-20%),1 (1=0-20%),1 (1=0-20%),1 (1=0-20%),1 (1=0-20%),1 (1=0-20%)
FC(F)(F)c1cn(Cc2ncc(Cl)cn2)c(-c2cnc(Cl)s2)n1 [Compound 1.008],5 (5=81-100%),5 (5=81-100%),5 (5=81-100%),5 (5=81-100%),5 (5=81-100%),5 (5=81-100%),5 (5=81-100%),5 (5=81-100%),5 (5=81-100%),4 (4=61-80%)
Cc1ncsc1-c1nc(C(F)(F)F)cn1Cc1ncc(Cl)cn1 [Compound 1.042],5 (5=81-100%),–,5 (5=81-100%),5 (5=81-100%),5 (5=81-100%),5 (5=81-100%),–,5 (5=81-100%),4 (4=61-80%),4 (4=61-80%)
Cn1cc(Cl)c(-c2nc(C(F)(F)F)cn2Cc2ncc(Cl)cn2)n1 [Compound 1.043],1 (1=0-20%),–,1 (1=0-20%),1 (1=0-20%),1 (1=0-20%),1 (1=0-20%),–,1 (1=0-20%),1 (1=0-20%),1 (1=0-20%)
FC(F)(F)c1cn(Cc2ncc(Cl)cn2)c(-c2sccc2Br)n1 [Compound 1.044],5 (5=81-100%),–,5 (5=81-100%),1 (1=0-20%),1 (1=0-20%),2 (2=21-40%),–,2 (2=21-40%),1 (1=0-20%),3 (3=41-60%)
FC(F)(F)c1cn(Cc2ncc(Cl)cn2)c(-c2scnc2Cl)n1 [Compound 1.045],5 (5=81-100%),–,5 (5=81-100%),1 (1=0-20%),5 (5=81-100%),4 (4=61-80%),–,4 (4=61-80%),2 (2=21-40%),4 (4=61-80%)
